Results: PubChem BioAssay AID276 (DTP/NCI, 2004)
“And” between values parts separate entries of the source, which are not always exact repeats. Equal entries are not always repeated. Inconclusive results and toxic doses are left out.

System: B6C3F1 mice, Lewis lung carcinoma iv, survival T/C
Experiment: NCI In Vivo Anticancer Drug Screen. Data for tumor model Lewis Lung Carcinoma (intravenous) in B6C3F1 mice
Settings: endpoint: median survival time, higher = longer survival
In short: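 Antitumor activity is assessed in tumor-bearing mice by comparing survival after compound treatment against vehicle-treated controls, reported as a T/C ratio.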

[1] = dose: 2.5 mg/kg/injection, schedule: Q01DX009 (ip), vehicle: saline
[2] = dose: 12.5 mg/kg/injection, schedule: Q01DX009 (ip), vehicle: saline with Tween-80
[3] = dose: 25.0 mg/kg/injection, schedule: Q01DX009 (ip), vehicle: saline with Tween-80
[4] = dose: 50.0 mg/kg/injection, schedule: Q01DX009 (ip), vehicle: saline
[5] = dose: 100.0 mg/kg/injection, schedule: Q01DX009 (ip), vehicle: saline
[6] = dose: 200.0 mg/kg/injection, schedule: Q01DX009 (ip), vehicle: saline
[7] = dose: 400.0 mg/kg/injection, schedule: Q01DX009 (ip), vehicle: saline
[8] = dose: 6.25 mg/kg/injection, schedule: Q01DX009 (ip), vehicle: saline
[9] = dose: 12.5 mg/kg/injection, schedule: Q01DX009 (ip), vehicle: saline
[10] = dose: 25.0 mg/kg/injection, schedule: Q01DX009 (ip), vehicle: saline
[11] = dose: 1.0 mg/kg/injection, schedule: Q01DX009 (ip), vehicle: saline with Tween-80
[12] = dose: 12.5 mg/kg/injection, schedule: Q01DX009 (ip), vehicle: suspension in saline
[13] = dose: 25.0 mg/kg/injection, schedule: Q01DX009 (ip), vehicle: suspension in saline
[14] = dose: 50.0 mg/kg/injection, schedule: Q01DX009 (ip), vehicle: suspension in saline
[15] = dose: 100.0 mg/kg/injection, schedule: Q01DX009 (ip), vehicle: suspension in saline

In the case of `O=NN(CCF)C(=O)NC1CCC(=O)NC1=O` (stereo unspecified), the T/C [1] is reported as 118 % of control, the T/C (dose: 10.0 mg/kg/injection, schedule: Q01DX009 (ip), vehicle: saline) is reported as 166 % of control and the T/C (dose: 20.0 mg/kg/injection, schedule: Q01DX009 (ip), vehicle: saline) is reported as 312 % of control.

For `N#CCCSC(=S)C1CCCC1=N` (stereo unspecified), the T/C [2] was 99 % of control, the T/C [3] was 103 % of control and the T/C (dose: 50.0 mg/kg/injection, schedule: Q01DX009 (ip), vehicle: saline with Tween-80) was 98 % of control. For the same compound, the T/C (dose: 100.0 mg/kg/injection, schedule: Q01DX009 (ip), vehicle: saline with Tween-80) was 103 % of control, the T/C (dose: 200.0 mg/kg/injection, schedule: Q01DX009 (ip), vehicle: saline with Tween-80) was 105 % of control and the T/C (dose: 400.0 mg/kg/injection, schedule: Q01DX009 (ip), vehicle: saline with Tween-80) was 106 % of control.

`O=C(O)C1CC(O)CN1` (stereo unspecified) was tested, and the T/C [4] was 98 % of control, the T/C [5] was 91 % of control and the T/C [6] was 91 % of control. For the same compound, the T/C [7] was 114 % of control and the T/C (dose: 800.0 mg/kg/injection, schedule: Q01DX009 (ip), vehicle: saline) was 109 % of control.

In the case of `COc1ccc2[nH]c3ccc4cc[n+](CCN5CCC(C6CCN(CC[n+]7ccc8ccc9[nH]c%10ccc(OC)cc%10c9c8c7)CC6)CC5)cc4c3c2c1`, the T/C (dose: 6.25 mg/kg/injection, schedule: Q01DX009 (ip), vehicle: Klucel (hydroxypropylcellulose) (HPC)) is reported as 106 % of control, the T/C (dose: 12.5 mg/kg/injection, schedule: Q01DX009 (ip), vehicle: Klucel (hydroxypropylcellulose) (HPC)) is reported as 91 % of control and 103 % of control and the T/C (dose: 25.0 mg/kg/injection, schedule: Q01DX009 (ip), vehicle: Klucel (hydroxypropylcellulose) (HPC)) is reported as 99 % of control.

For `CSC(SC)=C1C(=O)NC(=O)NC1=O`, the T/C (dose: 3.12 mg/kg/injection, schedule: Q01DX009 (ip), vehicle: saline) was 103 % of control, the T/C [8] was 105 % of control and the T/C [9] was 96 % of control. For the same compound, the T/C [10] was 112 % of control.

For `CC(C)CCC(=O)c1ccoc1`, the T/C (dose: 0.12 mg/kg/injection, schedule: Q03HX027 (ip), vehicle: saline with Tween-80) was 99 % of control, the T/C (dose: 0.25 mg/kg/injection, schedule: Q03HX027 (ip), vehicle: saline with Tween-80) was 97 % of control and the T/C (dose: 0.5 mg/kg/injection, schedule: Q03HX027 (ip), vehicle: saline with Tween-80) was 109 % of control. For the same compound, the T/C (dose: 1.0 mg/kg/injection, schedule: Q03HX027 (ip), vehicle: saline with Tween-80) was 117 % of control.

`COc1ccc(CC2C(=O)NC(C)C(=O)N(C)C3Cc4ccc(cc4)Oc4cc(ccc4O)CC(C(=O)NC(C)C(=O)NC(C)C(=O)N2C)N(C)C3=O)cc1` (stereo unspecified) was tested, and the T/C (dose: 0.25 mg/kg/injection, schedule: Q01DX009 (ip), vehicle: saline with Tween-80) was 110 % of control, the T/C (dose: 0.5 mg/kg/injection, schedule: Q01DX009 (ip), vehicle: saline with Tween-80) was 107 % of control and the T/C [11] was 106 % of control. The T/C (dose: 2.0 mg/kg/injection, schedule: Q01DX009 (ip), vehicle: saline with Tween-80) was 106 % of control.

For `Cc1c(N)nc(C(CC(N)=O)NCC(N)C(N)=O)nc1C(=O)NC(C(=O)NC(C)C(O)C(C)C(=O)NC(C(=O)NCCc1nc(-c2nc(C(=O)NCCCNCCCc3ccccn3)cs2)cs1)C(C)O)C(OC1OC(CO)C(O)C(O)C1OC1OC(CO)C(O)C(OC(N)=O)C1O)c1cnc[nH]1` (stereo unspecified), the T/C (dose: 2.0 mg/kg/injection, schedule: Q01DX009 (ip), vehicle: saline) was 113 % of control, the T/C (dose: 3.0 mg/kg/injection, schedule: Q01DX009 (ip), vehicle: saline + alcohol) was 108 % of control and the T/C (dose: 4.0 mg/kg/injection, schedule: Q01DX009 (ip), vehicle: saline) was 110 % of control. For the same compound, the T/C (dose: 6.0 mg/kg/injection, schedule: Q01DX009 (ip), vehicle: saline + alcohol) was 108 % of control, the T/C [8] was 122 % of control and the T/C (dose: 8.0 mg/kg/injection, schedule: Q01DX009 (ip), vehicle: saline) was 114 % of control. For the same compound, the T/C (dose: 12.0 mg/kg/injection, schedule: Q01DX009 (ip), vehicle: saline + alcohol) was 123 % of control and the T/C [9] was 123 % of control.

`Cc1ccc2nc(-c3ccc4nc(-c5ccc(N=Nc6ccc(-c7nc8ccc(-c9nc%10ccc(C)c(S(=O)(=O)O)c%10s9)cc8s7)cc6)cc5)sc4c3)sc2c1S(=O)(=O)O` was tested, and the T/C [12] was 95 % of control, the T/C [13] was 98 % of control and the T/C [14] was 107 % of control. For the same compound, the T/C [15] was 107 % of control.

With `Cc1ncc([N+](=O)[O-])n1CCSC(N)=O` the T/C [9] was 107 % of control, the T/C [10] was 102 % of control and the T/C [4] was 110 % of control. The T/C [5] was 95 % of control, the T/C [6] was 106 % of control and the T/C [7] was 97 % of control.

`NC(=O)c1[nH]nc(C2OC(CO)C(O)C2O)c1O` (stereo unspecified) was tested, and the T/C (dose: 0.31 mg/kg/injection, schedule: Q01DX009 (ip), vehicle: saline) was 91 % of control and 105 % of control, the T/C (dose: 0.62 mg/kg/injection, schedule: Q01DX009 (ip), vehicle: saline) was 98 % of control and 101 % of control and the T/C (dose: 1.25 mg/kg/injection, schedule: Q01DX009 (ip), vehicle: saline) was 120 % of control and 122 % of control. For the same compound, the T/C [1] was 122 % of control.

With `COc1cccc2c1C(=O)c1c(O)c3c(c(O)c1C2=O)C[C@@](O)(C(=O)CO)C[C@@H]3OC1CC(N)C(O)C(C)O1` (stereo partly specified) the T/C (dose: 0.12 mg/kg/injection, schedule: Q01DX009 (ip), vehicle: saline) was 94 % of control and 96 % of control and 98 % of control, the T/C (dose: 0.13 mg/kg/injection, schedule: Q01DX009 (ip), vehicle: saline) was 102 % of control and the T/C (dose: 0.5 mg/kg/injection, schedule: Q01DX009 (ip), vehicle: water) was 95 % of control and 100 % of control. For the same compound, the T/C (dose: 1.0 mg/kg/injection, schedule: Q01DX009 (ip), vehicle: water) was 88 % of control, the T/C (dose: 2.0 mg/kg/injection, schedule: Q01DX009 (ip), vehicle: water) was 90 % of control and 123 % of control and the T/C (dose: 4.0 mg/kg/injection, schedule: Q01DX009 (ip), vehicle: water) was 112 % of control.

For `CC[C@@H](C)[C@@H]1NC(=O)C(NC(=O)C(CC(C)C)N(C)C(=O)C2CCCN2C(=O)C(C)O)C(C)OC(=O)C(Cc2ccc(OC)cc2)N(C)C(=O)C2CCCN2C(=O)C(CC(C)C)NC(=O)C(C)C(=O)C(C(C)C)OC(=O)C[C@H]1O` (stereo partly specified), the T/C (dose: 25.0 micrograms/kg/injection, schedule: Q01DX009 (ip), vehicle: distilled water + alcohol) was 96 % of control, the T/C (dose: 50.0 micrograms/kg/injection, schedule: Q01DX009 (ip), vehicle: distilled water + alcohol) was 102 % of control and the T/C (dose: 100.0 micrograms/kg/injection, schedule: Q01DX009 (ip), vehicle: distilled water + alcohol) was 98 % of control. The T/C (dose: 200.0 micrograms/kg/injection, schedule: Q01DX009 (ip), vehicle: distilled water + alcohol) was 96 % of control and the T/C (dose: 400.0 micrograms/kg/injection, schedule: Q01DX009 (ip), vehicle: distilled water + alcohol) was 98 % of control.

With `O=C1CN(CCN2CC(=O)N(CN3CCOCC3)C(=O)C2)CC(=O)N1CN1CCOCC1` the T/C (dose: 100.0 mg/kg/injection, schedule: Q01DX009 (ip), vehicle: water) was 100 % of control.

`O=NN(CCCl)C(=O)NC1CCC(=O)NC1=O` (stereo unspecified) was tested, and the T/C [11] was 113 % of control, the T/C (dose: 4.0 mg/kg/injection, schedule: Q01DX009 (ip), vehicle: saline with Tween-80) was 225 % of control and the T/C (dose: 8.0 mg/kg/injection, schedule: Q01DX009 (ip), vehicle: saline with Tween-80) was 312 % of control. For the same compound, the T/C (dose: 16.0 mg/kg/injection, schedule: Q01DX009 (ip), vehicle: saline with Tween-80) was 93 % of control.

`CCCCCCCCCCCCCCCCCC(=O)Nc1ccn(C2OC(CO)C(O)C2O)c(=O)n1` (stereo unspecified) was tested, and the T/C [12] was 103 % of control and 109 % of control, the T/C [13] was 119 % of control and the T/C [14] was 160 % of control and 164 % of control.

With `COc1cccc2c1C(=O)c1c(O)c3c(c(O)c1C2=O)CC(O)(/C(C)=N/NC(=O)CCCCC(=O)N/N=C(\C)C1(O)Cc2c(O)c4c(c(O)c2C(OC2CC(N)C(O)C(C)O2)C1)C(=O)c1c(OC)cccc1C4=O)CC3OC1CC(N)C(O)C(C)O1` (stereo unspecified) the T/C (dose: 1.5 mg/kg/injection, schedule: Q01DX009 (ip), vehicle: water) was 120 % of control, the T/C (dose: 3.0 mg/kg/injection, schedule: Q01DX009 (ip), vehicle: water) was 109 % of control and the T/C (dose: 6.25 mg/kg/injection, schedule: Q01DX009 (ip), vehicle: water) was 117 % of control.

With `O=C1NC(O)c2ccccc2O1` (stereo unspecified) the T/C [13] was 106 % of control, the T/C [14] was 89 % of control and the T/C [15] was 107 % of control. The T/C (dose: 200.0 mg/kg/injection, schedule: Q01DX009 (ip), vehicle: suspension in saline) was 97 % of control.

In the case of `Nc1cc2c3c(cccc3c1)C(=O)N(CCN1CCCC1)C2=O`, the T/C (dose: 3.12 mg/kg/injection, schedule: Q01DX009 (ip), vehicle: saline with Tween-80) is reported as 105 % of control, the T/C (dose: 6.25 mg/kg/injection, schedule: Q01DX009 (ip), vehicle: saline with Tween-80) is reported as 105 % of control and the T/C [2] is reported as 105 % of control. For the same compound, the T/C [3] was 109 % of control.
